# Entries after “also recorded” stand apart in the source; their conditions may differ. Where a name gives a salt, the structure may show the parent alone. Read-outs that look alike come from different tables or passages of the source.
# Columns and labels:
# [1] = Plasma pharmacokinetics of 2-pyridylacetic acid after betahistine hydrochloride (LC/MS/MS); details: for Terminal elimination rate / Cmax: mean ± SD; for AUC(0-t) / Tmax / half-life / Cmax: plasma
# Protocol: Blood samples for pharmacokinetic analysis were collected just prior to study drug dosing, and at 0.5, 1, 1.5, 2, 3, and 4 hours. Samples (5 ml) were collected in tubes containing EDTA and were placed on ice after gentle shaking. Samples were centrifuged within 15 min at 4° C. at 3000×g for 10 min and plasma was separated into polypropylene tubes. Plasma was stored at −70° C. until further analysis.
# Plasma samples were analyzed using a validated liquid chromatography tandem mass spectroscopy (LC/MS/MS) as reported by Chen et al. with minor modifications. To 500 μL of plasma, 100 μL of 0.5 M orthophosphoric acid (H3PO4) was added. The mixed sample was extracted with 5 ml of ethyl acetate and 2-propanol mixture (97.5:2.5, v/v) and vortex-mixed thoroughly for 1 min. Sample was centrifuged at 2000×g for 10 min maintained at 4° C., the upper clear portion was carefully transferred to a glass tube and evaporated to dryness under nitrogen gas at 25° C. The residue was reconstituted with 100 μL of mobile phase and filtered using a Sep-pak® (Waters) SPE cartridges which was pre-equilibrated with mobile phase. The processed samples were analyzed using a liquid chromatography equipped with a Surveyor autosampler model Plus and a Surveyor quaternary gradient HPLC-pump (Thermo Fisher Scientific) connected to a linear ion trap-Fourier Transform LTQ-FT™ mass spectrometer operated in positive ion electrospray mode.
# Plasma concentration-time profile data were used to calculate Cmax, time to achieve Cmax (Tmax), terminal elimination half-life (T1/2), area under the plasma concentration-time curve from zero to last measurable time point (AUC0-t). The half life (T1/2) was calculated as 0.693/λz, where λz is the terminal-phase elimination rate constant. AUC0-t was calculated using the linear trapezoidal rule area under the curve (AUC0-t) from time zero to the time of the last measurable concentration (CT) at 4 hrs (last measurable time point).
# [2] = test system: histamine H3 autoreceptors; details: cats, oral, cited from earlier work
# [3] = humans, cited from earlier work
# ADHD adults [4] = assay: ECG parameters (QT, QTc) after single-dose betahistine in ADHD adults; format: in vivo, human; details: for QT Baseline / QTc Baseline: baseline (pre-dose); for QT 2 hours / QTc 2 hours: 2 hours post-dose
# Description: (§1) Subjects were randomly assigned to active drug, dose, and/or placebo using a modified Latin Square design. Safety measures, including vital signs, electrocardiogram, peak respiratory flow, clinical laboratory tests, and logging of adverse events were observed.
# (§2) Those AEs which accounted for >10% of the total were headache (n=11), fatigue (n=8), somnolence (n=8) and dizziness (n=4). […] The ECG data is summarized in Table 1 and categorized as benign.
# Throughout the study, two subjects experienced a conversion of their baseline ECG from normal to abnormal but not clinically significant two hours following a dose of study drug betahistine. […] Each of these abnormal ECGs were not repeated in these same subjects with other doses of betahistine.
# ADHD adults [5] = assay: Satiety Quotient (surrogate marker of appetite suppression); format: in vivo, human; details: RMANOVA, treatment 0, 50, 100, 200 mg
# Description: Instead, the study used surrogate markers of ADHD efficacy which are widely accepted, such as the signal detection (A prime) measures from the Continuous Performance Task (CPT) and a Go-no-Go task. Improvements or enhanced signal detection for either of these tasks track well with clinical improvements measuring ADHD symptom severity and frequency. (Epstein et al., Relations Between Continuous Performance Test Performance Measures and ADHD Behaviors, J. of Abnormal Child Psych. 31:5, 543-54 (2001)). […] To reflect this design, the study was analyzed using a repeated-measures analysis of variance (ANOVA) model (in SAS version 9.2, using the MIXED procedure). Treatment (4 levels: 0, 50, 100, 200) and Period (3 levels) and their interaction were included as fixed within-subject factors.
# ADHD adults [6] = assay: Pulmonary function (forced expiratory volume); format: in vivo, human
# Protocol: as §1
# All pulmonary function readings were analyzed by a board certified pulmonologist and no report was rated clinically significant.
# ADHD adults [7] = assay: Heart rate and blood pressure change from baseline; format: in vivo, human
# Description: as §1
# Changes from baseline in heart rate and BP were not dose dependent, nor were changes in these cardiovascular parameters by dose appreciably different from the placebo condition.
# healthy volunteers = details: cited from earlier work
# HPA axis [8] = assay: Cortisol response / HPA axis activity in rats; format: in vivo, rat
# Description: Certain subtypes of depression have been associated with decreased function of the hypothalamic-pituitary-adrenal (HPA) axis as evidenced by low cortisol and/or decreased CRH and ACTH levels.
# [9] = animal studies, peripheral administration; cited from earlier work
# [10] = test system: patients with cerebrovascular dementia; details: placebo-controlled trials; cited from earlier work
# [11] = test system: adult human subjects having ADHD; details: in vivo
# Description: as §1
# There were 39 total adverse events (AEs) across 16 total subjects, of which 12/16 accounted for all 39 reports. Only 16/39 AEs were rated as moderate in severity. […] Of the 39 total AEs, 21/39 were judged by the investigator to be possibly related to study drug based primarily on proximity (within 3 hours) to study drug administration. Only 3/39 AEs were judged as probably related to study drug and consisted of orthostasis, drowsiness and agitation. All adverse events resolved within 24 hours of the visit and most resolved by the end of each study visit (each visit lasting 5-6 hours). One subject experienced orthostatic hypotension at 1 hour following study drug administration on two separate occasions (Visit 1 (rated as mild) and Visit 3 (rated as moderate), the later judged to be probably study drug-related.
# as §2
# [12] = test system: patients with multiple sclerosis; details: cited from earlier work
# rats = details: cited from earlier work
# ADHD adults [13] = assay: Continuous Performance Task (CPT) signal detection, A prime and B prime; format: in vivo, human
# Description: Subjects were randomly assigned to active drug, dose, and/or placebo using a modified Latin Square design. Safety measures, including vital signs, electrocardiogram, peak respiratory flow, clinical laboratory tests, and logging of adverse events were observed. […] Instead, the study used surrogate markers of ADHD efficacy which are widely accepted, such as the signal detection (A prime) measures from the Continuous Performance Task (CPT) and a Go-no-Go task. Improvements or enhanced signal detection for either of these tasks track well with clinical improvements measuring ADHD symptom severity and frequency. (Epstein et al., Relations Between Continuous Performance Test Performance Measures and ADHD Behaviors, J. of Abnormal Child Psych. 31:5, 543-54 (2001)). […] To reflect this design, the study was analyzed using a repeated-measures analysis of variance (ANOVA) model (in SAS version 9.2, using the MIXED procedure). Treatment (4 levels: 0, 50, 100, 200) and Period (3 levels) and their interaction were included as fixed within-subject factors. In the case of signal detection measures, measures over three repeated blocks in each of three sessions were averaged to produce a summary measure for that session. Sessions were performed prior to drug administration and at two and four hours post-administration. A third within-subject factor (time since drug administration in hours; 0, 2, and 4 hours) was included along with its interactions with the treatment and period effects. A compound-symmetry structure was assumed for the correlation pattern of the within-subject residuals (equivalent to allowing each subject to have an individual intercept term to account for correlation among repeat measures on the same subject). Principle hypothesis tests were comparisons of the average of the non-zero doses against the placebo, as well as comparisons of each individual non-zero dose versus placebo. These were performed as linear contrasts, two-sided, α=0.05.
# [14] = test system: histamine release in the anterior hypothalamus; details: rats; cited from earlier work
# HPA axis [15] = details: mice; cited from earlier work
# [16] = after 100 mg betahistine hydrochloride
# [17] = RMANOVA, treatment 0, 50, 100, 200 mg
# [18] = RMANOVA, treatment 0, 50, 100, 200 mg, DF 3/29
smiles,measurement,setting,value
O=C(O)Cc1ccccn1 [2-pyridylacetic acid],Half-life and Tmax across the dose levels,"[1]; 50, 100, 200 mg betahistine",remained unchanged
same,Terminal elimination rate,[1]; after 50 mg betahistine hydrochloride,0.43 ± 0.35 h⁻¹
same,Terminal elimination rate,[1]; [16],0.25 ± 0.18 h⁻¹
same,Terminal elimination rate,[1]; after 200 mg betahistine hydrochloride,0.28 ± 0.17 h⁻¹
same,AUC(0-t),"[1]; human, 50 mg",1300 ± 587 ng·h/mL
same,Tmax,"[1]; human, 50 mg",1.55 ± 0.44 h
same,half-life,"[1]; human, 50 mg",4.24 ± 1.68 h
same,Cmax,"[1]; human, 50 mg, Cmax, after 50 mg betahistine hydrochloride",611 ± 490 ng/mL
same,AUC(0-t),"[1]; human, 100 mg",2780 ± 1840 ng·h/mL
same,Tmax,"[1]; human, 100 mg",1.3 ± 0.35 h
same,half-life,"[1]; human, 100 mg",3.74 ± 1.97 h
same,Cmax,"[1]; human, 100 mg, Cmax, after 100 mg betahistine hydrochloride",1040 ± 673 ng/mL
same,AUC(0-t),"[1]; human, 200 mg",5250 ± 2430 ng·h/mL
same,Tmax,"[1]; human, 200 mg",2.05 ± 0.86 h
same,half-life,"[1]; human, 200 mg",3.88 ± 3.38 h
same,Cmax,"[1]; human, 200 mg, Cmax, after 200 mg betahistine hydrochloride",2040 ± 905 ng/mL
same,Cmax,[1]; [16],1043.88 ± 673.49 ng/mL
CNCCc1ccccn1 [betahistine dihydrochloride],Dose required for rapid biological effect on histamine H3 autoreceptors,[2]; relative to human-equivalent 24-48 mg/day,5 fold and 10 fold higher equivalent doses were required
CNCCc1ccccn1.CS(=O)(=O)O.CS(=O)(=O)O [betahistine mesylate],Bioavailability,[3]; oral,less than 1%
CNCCc1ccccn1 [betahistine],"Biologic half-life, mean",[3],5 hours
same,"Biologic half-life, variability",[3],2-11 hours
same,"ECG data, category","ADHD adults [4]; 50, 100, 200 mg",benign
same,QT Baseline,ADHD adults [4]; betahistine 50 mg group,416 ± 33 ms
same,QTc Baseline,ADHD adults [4]; betahistine 50 mg group,416 ± 18 ms
same,QT 2 hours,ADHD adults [4]; betahistine 50 mg,403 ± 26 ms
same,QTc 2 hours,ADHD adults [4]; betahistine 50 mg,407 ± 18 ms
same,QT Baseline,ADHD adults [4]; betahistine 100 mg group,412 ± 27 ms
same,QTc Baseline,ADHD adults [4]; betahistine 100 mg group,409 ± 13 ms
same,QT 2 hours,ADHD adults [4]; betahistine 100 mg,395 ± 37 ms
same,QTc 2 hours,ADHD adults [4]; betahistine 100 mg,401 ± 14 ms
same,QT Baseline,ADHD adults [4]; betahistine 200 mg group,403 ± 37 ms
same,QTc Baseline,ADHD adults [4]; betahistine 200 mg group,410 ± 18 ms
same,QT 2 hours,ADHD adults [4]; betahistine 200 mg,400 ± 34 ms
same,QTc 2 hours,ADHD adults [4]; betahistine 200 mg,405 ± 17 ms
same,QT and rate corrected QTc (Bazett's) change from baseline,"ADHD adults [4]; betahistine 50, 100, 200 mg vs placebo (FIG. 1)",No clinically significant change
same,"Abnormal ECGs, clinical significance","ADHD adults [4]; two subjects abnormal but NCS at 2 hours (200 mg, 50 mg)",no abnormal ECGs were read as clinically significant
same,"Satiety Quotient - 2 hrs, Treatment effect, Pr > F",ADHD adults [5],0.4475
same,"Satiety Quotient - 4 hrs, Treatment effect, Pr > F",ADHD adults [5],0.8360
same,"Satiety Quotient - 2 hrs, Treatment effect, F Value",ADHD adults [5]; DF 3/21,0.92
same,"Satiety Quotient - 4 hrs, Treatment effect, F Value",ADHD adults [5]; DF 3/21,0.28
same,Effect on airway compliance and/or pulmonary function,ADHD adults [6]; FEV 25-75 at four hour post-dose,minimal or no effect
same,Change in forced expiratory volume in 1 second (FEV) from baseline,ADHD adults [6]; betahistine vs placebo (FIG. 4),No clinically significant change
same,Heart rate and blood pressure effects,"ADHD adults [7]; 50, 100, 200 mg, not dose dependent",minimal and judged as not clinically significant
same,Change in systolic blood pressure from baseline,"ADHD adults [7]; betahistine 50, 100, 200 mg vs placebo (FIG. 2)",No clinically significant change
same,Change in diastolic blood pressure from baseline,"ADHD adults [7]; betahistine 50, 100, 200 mg vs placebo (FIG. 3)",No clinically significant change
same,Effects on arousal and vigilance,healthy volunteers; 32 mg dose vs placebo,no effect; also recorded: no noticeable CNS-stimulating effects
same,Effects on arousal and vigilance,healthy volunteers; single dose 64 mg vs placebo,greater than those observed with placebo; also recorded: only mild stimulant-like effects
same,Cortisol response to stress,HPA axis [8],increases the cortisol response to stress
same,Effect on decrease in cortisol after dexamethasone administration,HPA axis [8],counteracts the decrease in cortisol
same,CNS concentration relative to plasma levels,[9],approximately half
same,Motor activity and cognitive functioning,[10],increase motor activity and improve cognitive functioning
same,AEs judged possibly related to study drug,[11]; human,21/39
same,AEs judged probably related to study drug,[11]; human,3/39
same,AEs rated as moderate in severity,[11]; human,16/39
same,Total adverse events,[11]; human,39
same,AEs reported as severe,[11],No AEs were reported as severe
same,Relationship between frequency or severity of AEs and dose,[11],no relationship
same,Biologic effects on brain histamine or histamine H3 receptors,[2]; roughly the human dose (48 mg/day),no biologic effects
same,Symptoms of fatigue,[12],statistically significant reduction
same,Eating behavior,rats,decrease eating behavior in rats in a dose-dependent manner
same,"APRIME_CPT, Treatment effect, Pr > F",ADHD adults [13]; [17],0.0254
same,"BPRIME_CPT, Treatment effect, Pr > F",ADHD adults [13]; [17],0.0045
same,"APRIME_CPT, Treatment effect, F Value",ADHD adults [13]; [18],3.59
same,"BPRIME_CPT, Treatment effect, F Value",ADHD adults [13]; [18],5.38
same,Effect on attention (CPT sensitivity and inhibition),"ADHD adults [13]; adults with ADHD, single doses up to 200 mg",improves attention
same,"CPT A prime, effect vs placebo",ADHD adults [13]; betahistine vs placebo,demonstrated a treatment effect compared to placebo
NC(=O)C[S+]([O-])C(c1ccccc1)c1ccccc1 (centres unmarked) [modafinil],Hypothalamic histamine release,[14],increase hypothalamic histamine release
NNCCc1ccccc1 [phenelzine],Cortisol levels,HPA axis [15],increases cortisol levels

# Source: patent US8242148B2 (priority 2005, dated 2012)
